# Assays:
# [1] = tested on: MCF-7 (human breast cancer); assay: Sulforhodamine B viability assay, MCF-7; assay type: cell-based; set-up: key: absorbance (optical density) at 570 nm, second wavelength subtracted
# Source text: (§1) Three different viability assays were chosen to complement each other and yielded results dependent on concentration and cell line: the Methyl Tetrazolium dye assay, the Sulforhodamine B fluorescent dye assay, and the Crystal Violet dye assay.
# The Sulforhodamine B and Crystal Violet assays provide information about protein and were used to complement the Methyl-Tetrazolium dye assay. […] It is used for the quantification of cellular proteins of cultured cells. The assay using Crystal Violet, a dye that binds electrostatically to proteins and stains DNA, provides a reliable, simple assay for measuring viability of cells.
# (§2) The Methyl Tetrazolium, Sulforhodamine B, and Crystal Violet assays were used to assess cell viabilities. The incubation times were 24 hours, 48 hours, and 72 hours. The Nerium oleander extract Anvirzel™ (a hot water extract of oleander obtained from Salud Integral, Honduras) was tested in concentrations ranging from 0.01 ng/mL to 10 ng/mL.
# (§3) Cells were detached by trypsinization (Trypsin-0.25% EDTA, Invitrogen, 25200-072) during the logarithmic phase of culture growth and plated in 96-well plates (18.000 cells/well) (Corning, Costar 359) in a final volume of 200 μl of medium per well. […] The absorbance was measured after 24 hours, 48 hours, and 72 hours of incubation.
# For the Sulforhodamine B assay, 96-well plates were fixed by 10% trichloroacetic acid (Fluka, 91228) and were incubated at 4° C. for 1 hour. Afterwards, plates were rinsed with water and cells were stained with 0.4% Sulforhodamine B (Sigma, 341738), dissolved in 1% acetic acid (Carlo Ebra, 401422) for 15 minutes at room temperature (RT). The unbound stain was washed twice with 1% acetic acid. Finally, 10 mM Tris Buffer pH 10.5 (Sigma, T6791) was added to dissolve the dye.
# (§4) The optical density of each plate was measured on a μQuant spectrophotometer and the data were analyzed with Gen5 software (μQuant Biomolecular Spectrophotometer MQX200 and Gen5™ Microplate Data Collection & Analysis software, BioTek® Instruments. Inc, April 2008). Absorbance was measured at 570 nm for all assays and a second wavelength was measured in order to subtract noise. For the Methyl-Tetrazolium assay this second wavelength was 630 nm and for the Sulforhodamine B and Crystal Violet assays it was 690 nm.
# [2] = tested on: A375 melanoma cancer cell line; assay: Methyl-Tetrazolium viability assay, A375; assay type: cell-based, human; conditions: for ABSORBANCE: 0.1 μg/mL cisplatin; for Average absorbance, MTT 24 h / Average absorbance, MTT 48 h / Average absorbance, MTT 72 h: A375 Run 1
# Source text: as §1
# The Methyl-Tetrazolium dye assay measures the activity of enzymes in mitochondria. The dye precursor is taken up by cells, where it undergoes reduction to the purple formazan. It measures only the mitochondrial activity and, thus, it is not always a reliable indication of whether the cells themselves are alive or dead, since even a recently dead cell has […] enzyme activity in mitochondria. Intracellular glucose concentration, pH, and time before assay all affect the measurements.
# as §2, §3
# For the Methyl-Tetrazolium assay, the dye (Sigma, M2128; 5 mg/mL, diluted in phosphate-buffered saline) was added to each well and plates were incubated for 3 hours at 37° C. After the end of the incubation period, the medium was discarded and the cells were rinsed with phosphate-buffered saline. Finally, the formazan crystals were dissolved in dimethylsulphoxide (Sigma, D4540).
# as §4
compound,measurement,setting,value
N.N.[Cl][Pt][Cl] [cisplatin],SRB Average,"[1]; MCF-7, Run 2, 24 h, 0.1 μg/ml CDDP",1.754
same,SRB Average,"[1]; MCF-7, Run 2, 24 h, 1 μg/ml CDDP",1.225
same,SRB Average,"[1]; MCF-7, Run 2, 24 h, 10 μg/ml CDDP",1.717
same,SRB Average,"[1]; MCF-7, Run 2, 24 h, 100 μg/ml CDDP",1.056
same,SRB Average,"[1]; MCF-7, Run 2, 48 h, 0.1 μg/ml CDDP",2.037
same,SRB Average,"[1]; MCF-7, Run 2, 48 h, 1 μg/ml CDDP",0.874
same,SRB Average,"[1]; MCF-7, Run 2, 48 h, 10 μg/ml CDDP",0.88
same,SRB Average,"[1]; MCF-7, Run 2, 48 h, 100 μg/ml CDDP",0.985
same,SRB Average,"[1]; MCF-7, Run 2, 72 h, 0.1 μg/ml CDDP",2.289
same,SRB Average,"[1]; MCF-7, Run 2, 72 h, 1 μg/ml CDDP",1.409
same,SRB Average,"[1]; MCF-7, Run 2, 72 h, 10 μg/ml CDDP",1.179
same,SRB Average,"[1]; MCF-7, Run 2, 72 h, 100 μg/ml CDDP",0.897
same,SRB Average,"[1]; MCF-7, Run 3, 24 h, 0.1 μg/ml CDDP",2.843
same,SRB Average,"[1]; MCF-7, Run 3, 24 h, 1 μg/ml CDDP",1.805
same,SRB Average,"[1]; MCF-7, Run 3, 24 h, 10 μg/ml CDDP",2.092
same,SRB Average,"[1]; MCF-7, Run 3, 24 h, 100 μg/ml CDDP",1.077
same,SRB Average,"[1]; MCF-7, Run 3, 48 h, 0.1 μg/ml CDDP",2.371
same,SRB Average,"[1]; MCF-7, Run 3, 48 h, 1 μg/ml CDDP",1.787
same,SRB Average,"[1]; MCF-7, Run 3, 48 h, 10 μg/ml CDDP",1.338
same,SRB Average,"[1]; MCF-7, Run 3, 48 h, 100 μg/ml CDDP",1.673
same,SRB Average,"[1]; MCF-7, Run 3, 72 h, 0.1 μg/ml CDDP",2.522
same,SRB Average,"[1]; MCF-7, Run 3, 72 h, 1 μg/ml CDDP",1.885
same,SRB Average,"[1]; MCF-7, Run 3, 72 h, 10 μg/ml CDDP",1.622
same,SRB Average,"[1]; MCF-7, Run 3, 72 h, 100 μg/ml CDDP",1.181
same,SRB Average,"[1]; MCF-7 Run 1, 24 h, 0.1 μg/ml CDDP",2.066
same,SRB Average,"[1]; MCF-7 Run 1, 24 h, 1 μg/ml CDDP",1.404
same,SRB Average,"[1]; MCF-7 Run 1, 24 h, 10 μg/ml CDDP",1.825
same,SRB Average,"[1]; MCF-7 Run 1, 24 h, 100 μg/ml CDDP",1.579
same,SRB Average,"[1]; MCF-7 Run 1, 48 h, 0.1 μg/ml CDDP",2.67
same,SRB Average,"[1]; MCF-7 Run 1, 48 h, 1 μg/ml CDDP",1.873
same,SRB Average,"[1]; MCF-7 Run 1, 48 h, 10 μg/ml CDDP",1.731
same,SRB Average,"[1]; MCF-7 Run 1, 48 h, 100 μg/ml CDDP",1.452
same,SRB Average,"[1]; MCF-7 Run 1, 72 h, 0.1 μg/ml CDDP",2.779
same,SRB Average,"[1]; MCF-7 Run 1, 72 h, 1 μg/ml CDDP",1.762
same,SRB Average,"[1]; MCF-7 Run 1, 72 h, 10 μg/ml CDDP",1.702
same,SRB Average,"[1]; MCF-7 Run 1, 72 h, 100 μg/ml CDDP",1.024
same,ABSORBANCE,"[2]; A375, 48 h",0.332
same,ABSORBANCE,"[2]; A375, 72 h",0.479
same,"Average absorbance, MTT 24 h",[2]; 0.1 μg/ml CDDP,0.34
same,"Average absorbance, MTT 48 h",[2]; 0.1 μg/ml CDDP,0.332
same,"Average absorbance, MTT 72 h",[2]; 0.1 μg/ml CDDP,0.479
same,"Average absorbance, MTT 24 h",[2]; 1 μg/ml CDDP,0.068
same,"Average absorbance, MTT 48 h",[2]; 1 μg/ml CDDP,0.048
same,"Average absorbance, MTT 72 h",[2]; 1 μg/ml CDDP,0.042
same,"Average absorbance, MTT 24 h",[2]; 10 μg/ml CDDP,0.066
same,"Average absorbance, MTT 48 h",[2]; 10 μg/ml CDDP,0.044
same,"Average absorbance, MTT 72 h",[2]; 10 μg/ml CDDP,0.04
same,"Average absorbance, MTT 24 h",[2]; 100 μg/ml CDDP,0.049
same,"Average absorbance, MTT 48 h",[2]; 100 μg/ml CDDP,0.038
same,"Average absorbance, MTT 72 h",[2]; 100 μg/ml CDDP,0.036
same,Average absorbance MTT,"[2]; A375 Run 2, 24 h, 0.1 μg/ml CDDP",0.367
same,Average absorbance MTT,"[2]; A375 Run 2, 24 h, 1 μg/ml CDDP",0.047
same,Average absorbance MTT,"[2]; A375 Run 2, 24 h, 10 μg/ml CDDP",0.049
same,Average absorbance MTT,"[2]; A375 Run 2, 24 h, 100 μg/ml CDDP",0.031
same,Average absorbance MTT,"[2]; A375 Run 2, 48 h, 0.1 μg/ml CDDP",0.598
same,Average absorbance MTT,"[2]; A375 Run 2, 48 h, 1 μg/ml CDDP",0.046
same,Average absorbance MTT,"[2]; A375 Run 2, 48 h, 10 μg/ml CDDP",0.045
same,Average absorbance MTT,"[2]; A375 Run 2, 48 h, 100 μg/ml CDDP",0.048
same,Average absorbance MTT,"[2]; A375 Run 2, 72 h, 0.1 μg/ml CDDP",0.696
same,Average absorbance MTT,"[2]; A375 Run 2, 72 h, 1 μg/ml CDDP",0.049
same,Average absorbance MTT,"[2]; A375 Run 2, 72 h, 10 μg/ml CDDP",0.042
same,Average absorbance MTT,"[2]; A375 Run 2, 72 h, 100 μg/ml CDDP",0.038
same,Average absorbance MTT,"[2]; A375 Run 3, 24 h, 0.1 μg/ml CDDP",0.25
same,Average absorbance MTT,"[2]; A375 Run 3, 24 h, 1 μg/ml CDDP",0.052
same,Average absorbance MTT,"[2]; A375 Run 3, 24 h, 10 μg/ml CDDP",0.054
same,Average absorbance MTT,"[2]; A375 Run 3, 24 h, 100 μg/ml CDDP",0.01
same,Average absorbance MTT,"[2]; A375 Run 3, 48 h, 0.1 μg/ml CDDP",0.422
same,Average absorbance MTT,"[2]; A375 Run 3, 48 h, 1 μg/ml CDDP",0.041
same,Average absorbance MTT,"[2]; A375 Run 3, 48 h, 10 μg/ml CDDP",0.037
same,Average absorbance MTT,"[2]; A375 Run 3, 48 h, 100 μg/ml CDDP",0.036
same,Average absorbance MTT,"[2]; A375 Run 3, 72 h, 0.1 μg/ml CDDP",0.413
same,Average absorbance MTT,"[2]; A375 Run 3, 72 h, 1 μg/ml CDDP",0.026
same,Average absorbance MTT,"[2]; A375 Run 3, 72 h, 10 μg/ml CDDP",0.033
same,Average absorbance MTT,"[2]; A375 Run 3, 72 h, 100 μg/ml CDDP",0.031

# From US20190343908A1, “Therapeutic Combination for the Treatment of Cancer” (Nerium Biotechnology Inc., priority 2011, published 2019)
